Legend:
[1] = target: T1, Melanin-concentrating hormone receptor 1 (Homo sapiens, UniProt Q99705); experiment: Displacement of 125I-[Phe13,Tyr19]-MCH from human MCH-R1
[2] = target: T2, Melanin-concentrating hormone receptor 1 (Rattus norvegicus, UniProt P97639); experiment: […] of IP3-coupled mobilization of calcium in HEK293 cells expressing rat MCH-R1; format: functional, cell-based
[3] = target: Melanin-concentrating hormone receptor 2 (Homo sapiens) (UniProt Q969V1); experiment: Inhibition of 125I-[Phe13,Tyr19]-MCHbinding to human MCH-R2; details: concentration not given here
Sequence of Melanin-concentrating hormone receptor 2 (Homo sapiens) (Q969V1 whole entry): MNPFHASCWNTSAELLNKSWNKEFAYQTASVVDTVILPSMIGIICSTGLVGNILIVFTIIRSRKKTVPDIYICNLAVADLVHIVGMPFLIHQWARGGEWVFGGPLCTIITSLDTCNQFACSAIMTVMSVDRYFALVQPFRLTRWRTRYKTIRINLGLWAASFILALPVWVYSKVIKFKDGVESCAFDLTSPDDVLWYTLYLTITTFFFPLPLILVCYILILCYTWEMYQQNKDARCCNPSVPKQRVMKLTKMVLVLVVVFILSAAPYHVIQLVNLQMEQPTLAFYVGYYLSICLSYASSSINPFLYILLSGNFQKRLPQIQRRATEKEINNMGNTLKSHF

[4] = target: T2, Melanin-concentrating hormone receptor 1; experiment: Displacement of 125I-[Phe13,Tyr19]-MCH from rat MCH-R1
[5] = Rat Clp; format: ADME, organism-based; details: plasma, read-out: Clp
[6] = Volume of distribution in rats; format: ADME, organism-based; details: rat, in vivo; read-out: Vdss
[7] = Half-life in rats; format: ADME, organism-based; details: rat, in vivo
[8] = species: Rattus norvegicus; experiment: Decreased overnight food intake in continuously infused rats on high-fat diet; format: functional
[9] = target: T1, Melanin-concentrating hormone receptor 1; experiment: Inhibition of 125I-[Phe13,Tyr19]-MCH binding to human MCH-R1 at 5uM
[10] = target: Melanin-concentrating hormone receptor 1 (Rattus norvegicus) (UniProt P97639); experiment: Inhibition of 125I-[Phe13,Tyr19]-MCH binding to rat MCH-R1 at 5uM
Sequence of Melanin-concentrating hormone receptor 1 (Rattus norvegicus) (P97639 whole entry): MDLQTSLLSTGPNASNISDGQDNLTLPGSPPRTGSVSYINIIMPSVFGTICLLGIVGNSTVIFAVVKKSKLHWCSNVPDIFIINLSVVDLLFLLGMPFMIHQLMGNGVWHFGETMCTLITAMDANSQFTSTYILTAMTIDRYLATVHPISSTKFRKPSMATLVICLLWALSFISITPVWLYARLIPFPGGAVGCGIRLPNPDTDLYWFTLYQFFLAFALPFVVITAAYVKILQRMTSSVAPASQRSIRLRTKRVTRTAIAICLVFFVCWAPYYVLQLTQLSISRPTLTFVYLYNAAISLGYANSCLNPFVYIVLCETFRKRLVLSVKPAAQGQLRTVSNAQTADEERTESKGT

T2 sequence (P97639 whole entry): as above
T1 sequence (Q99705 whole entry): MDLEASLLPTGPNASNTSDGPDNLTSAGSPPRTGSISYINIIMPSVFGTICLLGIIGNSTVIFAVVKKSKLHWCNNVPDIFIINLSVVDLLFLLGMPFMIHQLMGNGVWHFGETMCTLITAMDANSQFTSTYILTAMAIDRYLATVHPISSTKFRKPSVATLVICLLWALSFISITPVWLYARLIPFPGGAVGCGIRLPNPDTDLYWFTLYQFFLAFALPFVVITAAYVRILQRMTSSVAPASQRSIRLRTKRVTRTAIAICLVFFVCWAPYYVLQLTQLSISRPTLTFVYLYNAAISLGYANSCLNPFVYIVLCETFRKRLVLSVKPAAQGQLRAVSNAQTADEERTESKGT

| SMILES | IC50 [1] [nM] | EC50 [2] [nM] | inhibition [3] [%] | further results |
| --- | --- | --- | --- | --- |
| O=C(CCc1ccc(C(F)(F)F)cc1)Nc1ccc2nc(N3CCC(c4ccccc4)C3)ccc2c1 (stereo unspecified) | 25 | 1770 |  |  |
| CN(c1ccccc1)c1ccc2cc(NC(=O)CCc3ccc(C(F)(F)F)cc3)ccc2n1 | 3700 |  | < 50 |  |
| O=C(CCCCCCCCCCCCc1ccc(C(F)(F)F)cc1)Nc1ccc2nc([N+]34CCC(CC3)CC4)ccc2c1 | 5 | 25 |  | IC50 [4]: 13 nM; clearance [5]: 36 mL/min/kg; Vd [6]: 1 L/kg; half-life [7]: 36 min; Reduced food intake [8]: 26% |
| O=C(Nc1ccc2nc([N+]34CCC(CC3)CC4)ccc2c1)c1ccc(C(F)(F)F)nc1 |  | > 10000 |  | inhibition [9]: 30%; inhibition [10]: 20%; clearance [5]: 57 mL/min/kg; Vd [6]: 3.92 L/kg; half-life [7]: 66 min |
| COC(=O)C1CCCN1c1ccc2cc(NC(=O)CCc3ccc(C(F)(F)F)cc3)ccc2n1 (stereo unspecified) | 800 | 580 |  |  |
| CNc1ccc2cc(NC(=O)CCc3ccc(C(F)(F)F)cc3)ccc2n1 | 20 | 330 | < 50 |  |
| Nc1ccc2cc(NC(=O)CCc3ccc(C(F)(F)F)cc3)ccc2n1 | 240 | 720 | < 50 |  |
| CN(C)c1ccc2cc(NC(=O)CCc3ccc(C(F)(F)F)cc3)ccc2n1 | 13 | 110 | < 50 |  |
| O=C(CCc1ccc(C(F)(F)F)cc1)Nc1ccc2nc(N3CCCCC3)ccc2c1 | 12 | 110 | < 50 |  |
| O=C(CCc1ccc(C(F)(F)F)cc1)Nc1ccc2nc(N3CCCCCC3)ccc2c1 | 36 | 1800 | < 50 |  |
| O=C(CCc1ccc(C(F)(F)F)cc1)Nc1ccc2nc(N3CC4CC3CO4)ccc2c1 (stereo unspecified) | 13 | 70 |  |  |
| CCCc1cc(N(C)C)c2cc(NC(=O)CCc3ccc(C(F)(F)F)cc3)ccc2n1 | 12 |  |  |  |
| CCN(CC)c1ccc2cc(NC(=O)CCc3ccc(C(F)(F)F)cc3)ccc2n1 | 88 | 830 | < 50 |  |
| O=C(CCc1ccc(C(F)(F)F)cc1)Nc1ccc2nc(N3CC4CC3CN4)ccc2c1 (stereo unspecified) | 210 | 490 |  |  |
| CN(c1ccc2cc(NC(=O)CCc3ccc(C(F)(F)F)cc3)ccc2n1)C1CCCCC1 | 18 | 1200 | < 50 |  |
| CCCN(CCC)c1ccc2cc(NC(=O)CCc3ccc(C(F)(F)F)cc3)ccc2n1 | 490 |  | < 50 |  |

More lines, main results first:

| IC50 [1] [nM] | EC50 [2] [nM] | inhibition [3] [%] | SMILES | further results |
| --- | --- | --- | --- | --- |
| 3 | 320 | < 50 | O=C(CCc1ccc(C(F)(F)F)cc1)Nc1ccc2nc(N3CCCC3)ccc2c1 | EC50 ([2]; hek293): 320 nM |
| 3 | 50 |  | CS(=O)(=O)NC1CCN(c2ccc3cc(NC(=O)CCc4ccc(C(F)(F)F)cc4)ccc3n2)C1 (stereo unspecified) |  |
| 12 | 200 |  | NC1CCN(c2ccc3cc(NC(=O)CCc4ccc(C(F)(F)F)cc4)ccc3n2)C1 (stereo unspecified) |  |
| 1 | 90 |  | CC(C)C(=O)NC1CCN(c2ccc3cc(NC(=O)CCc4ccc(C(F)(F)F)cc4)ccc3n2)C1 (stereo unspecified) |  |
| 2 | 140 | < 50 | CC(C)N(C)c1ccc2cc(NC(=O)CCc3ccc(C(F)(F)F)cc3)ccc2n1 |  |
| 6 | 30 |  | CNC(=O)NC1CCN(c2ccc3cc(NC(=O)CCc4ccc(C(F)(F)F)cc4)ccc3n2)C1 (stereo unspecified) |  |
| 10 | 110 |  | O=C(CCc1ccc(C(F)(F)F)cc1)Nc1ccc2nc(N3CCC(NC(=O)c4ccccc4)C3)ccc2c1 (stereo unspecified) |  |
| 2 | 350 | < 50 | CN(c1ccc2cc(NC(=O)CCc3ccc(C(F)(F)F)cc3)ccc2n1)C1CCCC1 |  |
| 5 | 270 |  | CC1CCCN1c1ccc2cc(NC(=O)CCc3ccc(C(F)(F)F)cc3)ccc2n1 (stereo unspecified) |  |
| 4 | 56 | < 50 | O=C(CCc1ccc(C(F)(F)F)cc1)Nc1ccc2nc(N3CCC3)ccc2c1 |  |
| 5 | 440 |  | CC(=O)NC1CCN(c2ccc3cc(NC(=O)CCc4ccc(C(F)(F)F)cc4)ccc3n2)C1 (stereo unspecified) |  |
| 0.5 | 140 |  | O=C(CCc1ccc(C(F)(F)F)cc1)Nc1ccc2nc(N3CCC4(CCNC4)C3)ccc2c1 (stereo unspecified) |  |
| 10 | 140 | < 50 | CCCN(C)c1ccc2cc(NC(=O)CCc3ccc(C(F)(F)F)cc3)ccc2n1 |  |
| 2 | 400 |  | CC1CCN(c2ccc3cc(NC(=O)CCc4ccc(C(F)(F)F)cc4)ccc3n2)C1 (stereo unspecified) |  |
| 3 | 190 | < 50 | O=C(CCc1ccc(C(F)(F)F)cc1)Nc1ccc2nc(N3CC4CCC3CC4)ccc2c1 |  |
| 1 | 150 |  | O=C(CCc1ccc(C(F)(F)F)cc1)Nc1ccc2nc(N3CC4CCC3C4)ccc2c1 (stereo unspecified) |  |

From ChEMBL document CHEMBL1137268, “2-Aminoquinoline melanin-concentrating hormone (MCH)1R antagonists” (Bioorg Med Chem Lett, 2006)
